Test results as given in patent US20210317401A1, “USE OF CYSTEINE OR SALT THEREOF FOR CRYOPROTECTING LACTIC ACID BACTERIA” (CJ CHEILJEDANG CORPORATION, priority 2018, published 2021).

Experiments:
[1] = tested on: Lactobacillus plantarum CJLP133; assay: High-concentration culturing of lactic acid bacteria, O.D. value; assay type: cell-based; conditions: 0.1% in MRS liquid medium; from O.D. results
Procedure: (§1) A Lactobacillus plantarum CJLP133 strain was cultured at 37° C. for 11 hours in an MRS liquid medium (Difco, USA) containing 0.1% of cysteine monohydrochloride.
(§2) A Lactobacillus plantarum CJLP133 strain was cultured at 37° C. for 11 hours in an MRS liquid medium (Difco, USA) not containing 0.1% of cysteine monohydrochloride.
The evaluation of the lactic acid bacteria culturing was measured by diluting a lactic acid bacteria culture solution 20 times at 600 nm using a spectrophotometer (NanoPhotometer, IMPLEN) according to the method for measuring an optical density (O.D.) value of Korean Food Additives Codex.

[2] = tested on: Lactobacillus plantarum CJLP133; assay: High-concentration culturing of lactic acid bacteria, number of live bacteria; assay type: cell-based; conditions: 0.1% in MRS liquid medium; from live bacteria counts
Procedure: as §1, §2
A lactic acid bacteria culture solution was diluted with sterilized physiological water and smeared so that 30 to 300 colonies were formed in an MRS agar plate medium, and then cultured at 37° C. for 24 hours. The number of colonies observed after the culturing was counted and calculated as the number of live bacteria per mL.

Cl.N[C@@H](CS)C(=O)O [cysteine monohydrochloride]
ability to accelerate the growth of lactic acid bacteria (in words) [1]: excellent
ability to accelerate the growth of lactic acid bacteria (in words) [2]: excellent
